Measured values taken from US20100113268A1, “SYNERGISTIC ACTIVE COMPOUND COMBINATIONS” (priority 2006, published 2010).

Test system: Meloidogyne incognita
Test: Meloidogyne incognita test (MELGIN), gall formation on lettuce roots in soil
Assay type: in vivo
Conditions: single active compound, 100% = no galls, 0% = galls as untreated control
Method: Meloidogyne incognita Test (MELGIN)
To produce a suitable preparation of active compound, 1 part by weight of active compound is mixed with the stated amounts of solvent and emulsifier, and the concentrate is diluted with water to the desired concentration.
Vessels are filled with soil, solution of active compound, Meloidogyne incognita egg/larvae suspension and lettuce seeds. The lettuce seeds germinate and plants develop. On the roots, galls are formed.
After the desired period of time, the nematicidal action is determined in % by the formation of galls. 100% means that no galls have been found; 0% means that the number of galls on the treated plants corresponds to that of the untreated control.

| SMILES | Kill in % after 21 d (0.125 ppm) [%] | Kill in % after 21 d (2 ppm) [%] |
| --- | --- | --- |
| CNC(=O)O/N=C(\SC)C(=O)N(C)C [Oxamyl, oxamyl] | 24 |  |
| CN/C(=N\[N+](=O)[O-])NCc1cnc(Cl)s1 [Clothianidin] |  | 0 |
| O=[N+]([O-])/N=C1\NCCN1Cc1ccc(Cl)nc1 [Imidacloprid] |  | 0 |
